In PubChem BioAssay AID1259407 (Chemical Carcinogenesis Research Information System (CCRIS), 2018) one finds mutagenic call data, which are given here for 7 compounds.

Each structure is given as a SMILES string. Active and inactive are the calls of the source. How the calls were made is not given here.

For the series, the system named is CCRIS mutagenicity, Ames/micronucleus/aberration tests. Briefly: CCRIS mutagenicity studies.
[1] abbreviates: Test System: AMES SALMONELLA TYPHIMURIUM, Strain/Indicator: TA98, Metabolic Activation: NONE, Method: PREINCUBATION
Where [2] appears, read: Test System: AMES SALMONELLA TYPHIMURIUM, Strain/Indicator: TA100, Metabolic Activation: NONE, Method: PREINCUBATION
Where [3] appears, read: Test System: AMES SALMONELLA TYPHIMURIUM, Strain/Indicator: TA1537, Metabolic Activation: NONE, Method: PREINCUBATION
[4] abbreviates: Test System: AMES SALMONELLA TYPHIMURIUM, Strain/Indicator: TA98, Metabolic Activation: NONE, Method: STANDARD PLATE.
[5] abbreviates: Test System: AMES SALMONELLA TYPHIMURIUM, Strain/Indicator: TA100, Metabolic Activation: NONE, Method: STANDARD PLATE.
[6] abbreviates: Test System: AMES SALMONELLA TYPHIMURIUM, Strain/Indicator: TA100, Metabolic Activation: RAT, LIVER, S-9, AROCLOR 1254, Method: PREINCUBATION
Setting [7] is: Test System: AMES SALMONELLA TYPHIMURIUM, Strain/Indicator: TA1537, Metabolic Activation: NONE, Method: STANDARD PLATE.
Where [8] appears, read: Test System: MOUSE LYMPHOMA, Strain/Indicator: L5178Y (TK+/TK-), Metabolic Activation: RAT, LIVER, S-9, AROCLOR 1254, Method: SUSPENSION/PLATE.

Regarding `CC1OC1C` (centres undefined), the mutagenic call (Test System: AMES SALMONELLA TYPHIMURIUM, Strain/Indicator: TA97, Metabolic Activation: HAMSTER, LIVER, S-9, AROCLOR 1254 (30%), Method: PREINCUBATION) was “inactive; negative”; the mutagenic call (Test System: AMES SALMONELLA TYPHIMURIUM, Strain/Indicator: TA97, Metabolic Activation: NONE, Method: PREINCUBATION) was “inactive; negative”; the mutagenic call (Test System: AMES SALMONELLA TYPHIMURIUM, Strain/Indicator: TA97, Metabolic Activation: RAT, LIVER, S-9, AROCLOR 1254 (30%), Method: PREINCUBATION) was “inactive; negative”; the mutagenic call (Test System: AMES SALMONELLA TYPHIMURIUM, Strain/Indicator: TA98, Metabolic Activation: HAMSTER, LIVER, S-9, AROCLOR 1254 (30%), Method: PREINCUBATION) is “inactive; negative”; the mutagenic call under setting [1] was “inactive; negative”; the mutagenic call (Test System: AMES SALMONELLA TYPHIMURIUM, Strain/Indicator: TA98, Metabolic Activation: RAT, LIVER, S-9, AROCLOR 1254 (30%), Method: PREINCUBATION) was “inactive; negative”. For the same compound, the mutagenic call is, setting by setting: (Test System: AMES SALMONELLA TYPHIMURIUM, Strain/Indicator: TA100, Metabolic Activation: HAMSTER, LIVER, S-9, AROCLOR 1254 (30%), Method: PREINCUBATION) “inactive; negative”; under setting [2], “inactive; negative”; (Test System: AMES SALMONELLA TYPHIMURIUM, Strain/Indicator: TA100, Metabolic Activation: RAT, LIVER, S-9, AROCLOR 1254 (30%), Method: PREINCUBATION) “inactive; negative”; (Test System: AMES SALMONELLA TYPHIMURIUM, Strain/Indicator: TA1535, Metabolic Activation: HAMSTER, LIVER, S-9, AROCLOR 1254 (30%), Method: PREINCUBATION) “active; positive”; (Test System: AMES SALMONELLA TYPHIMURIUM, Strain/Indicator: TA1535, Metabolic Activation: RAT, LIVER, S-9, AROCLOR 1254 (30%), Method: PREINCUBATION) “active; positive”; (Test System: AMES SALMONELLA TYPHIMURIUM, Strain/Indicator: TA1537, Metabolic Activation: HAMSTER, LIVER, S-9, AROCLOR 1254 (30%), Method: PREINCUBATION) “inactive; negative”. Further, the mutagenic call by setting is: under setting [3], “inactive; negative”; (Test System: AMES SALMONELLA TYPHIMURIUM, Strain/Indicator: TA1537, Metabolic Activation: RAT, LIVER, S-9, AROCLOR 1254 (30%), Method: PREINCUBATION) “inactive; negative”.

`Cc1cccc(NC(=O)c2csc([N+](=O)[O-])c2)c1`: the mutagenic call is, setting by setting: under setting [4], “active; positive”; under setting [5], “active; positive”.

As to `C[Si](C)(Cl)Cl`, the mutagenic call runs as follows: (Test System: AMES SALMONELLA TYPHIMURIUM, Strain/Indicator: TA98, Metabolic Activation: HAMSTER, LIVER, S-9, AROCLOR 1254, Method: PREINCUBATION) “inactive; negative”; under setting [1], “inactive; negative”; under setting [4], “inactive; negative”; (Test System: AMES SALMONELLA TYPHIMURIUM, Strain/Indicator: TA98, Metabolic Activation: RAT LIVER S-9, AROCLOR 1254, Method: STANDARD PLATE) “inactive; negative”; (Test System: AMES SALMONELLA TYPHIMURIUM, Strain/Indicator: TA98, Metabolic Activation: RAT, LIVER, S-9, AROCLOR 1254, Method: PREINCUBATION) “inactive; negative”; (Test System: AMES SALMONELLA TYPHIMURIUM, Strain/Indicator: TA100, Metabolic Activation: HAMSTER, LIVER, S-9, AROCLOR 1254, Method: PREINCUBATION) “inactive; negative”. The mutagenic call is “inactive; negative” under setting [2]; “inactive; negative” under setting [5]; “inactive; negative” (Test System: AMES SALMONELLA TYPHIMURIUM, Strain/Indicator: TA100, Metabolic Activation: RAT LIVER S-9, AROCLOR 1254, Method: STANDARD PLATE); “inactive; negative” under setting [6]; “inactive; negative” (Test System: AMES SALMONELLA TYPHIMURIUM, Strain/Indicator: TA1535, Metabolic Activation: HAMSTER, LIVER, S-9, AROCLOR 1254, Method: PREINCUBATION); “inactive; negative” (Test System: AMES SALMONELLA TYPHIMURIUM, Strain/Indicator: TA1535, Metabolic Activation: NONE, Method: PREINCUBATION). In addition, the mutagenic call was “inactive; negative” (Test System: AMES SALMONELLA TYPHIMURIUM, Strain/Indicator: TA1535, Metabolic Activation: NONE, Method: STANDARD PLATE); “inactive; negative” (Test System: AMES SALMONELLA TYPHIMURIUM, Strain/Indicator: TA1535, Metabolic Activation: RAT LIVER S-9, AROCLOR 1254, Method: STANDARD PLATE); “inactive; negative” (Test System: AMES SALMONELLA TYPHIMURIUM, Strain/Indicator: TA1535, Metabolic Activation: RAT, LIVER, S-9, AROCLOR 1254, Method: PREINCUBATION); “inactive; negative” (Test System: AMES SALMONELLA TYPHIMURIUM, Strain/Indicator: TA1537, Metabolic Activation: HAMSTER, LIVER, S-9, AROCLOR 1254, Method: PREINCUBATION); “inactive; negative” under setting [3]; “inactive; negative” under setting [7]. The mutagenic call runs as follows: (Test System: AMES SALMONELLA TYPHIMURIUM, Strain/Indicator: TA1537, Metabolic Activation: RAT LIVER S-9, AROCLOR 1254, Method: STANDARD PLATE) “inactive; negative”; (Test System: AMES SALMONELLA TYPHIMURIUM, Strain/Indicator: TA1537, Metabolic Activation: RAT, LIVER, S-9, AROCLOR 1254, Method: PREINCUBATION) “inactive; negative”; (Test System: AMES SALMONELLA TYPHIMURIUM, Strain/Indicator: TA1538, Metabolic Activation: HAMSTER, LIVER, S-9, AROCLOR 1254, Method: PREINCUBATION) “inactive; negative”; (Test System: AMES SALMONELLA TYPHIMURIUM, Strain/Indicator: TA1538, Metabolic Activation: NONE, Method: PREINCUBATION) “inactive; negative”; (Test System: AMES SALMONELLA TYPHIMURIUM, Strain/Indicator: TA1538, Metabolic Activation: NONE, Method: STANDARD PLATE) “inactive; negative”; (Test System: AMES SALMONELLA TYPHIMURIUM, Strain/Indicator: TA1538, Metabolic Activation: RAT LIVER S-9, AROCLOR 1254, Method: STANDARD PLATE) “inactive; negative”. The mutagenic call runs as follows: (Test System: AMES SALMONELLA TYPHIMURIUM, Strain/Indicator: TA1538, Metabolic Activation: RAT, LIVER, S-9, AROCLOR 1254, Method: PREINCUBATION) “inactive; negative”; (Test System: E. COLI, Strain/Indicator: P3078(POL A-), Metabolic Activation: NONE, Method: SPOT TEST) “inactive; negative”; (Test System: E. COLI, Strain/Indicator: P3078 POLA, Metabolic Activation: RAT LIVER S-9, AROCLOR 1254, Method: SPOT TEST) “inactive; negative”; (Test System: E. COLI, Strain/Indicator: W3110, Metabolic Activation: NONE, Method: SPOT TEST) “inactive; negative”; (Test System: E. COLI, Strain/Indicator: W3110, Metabolic Activation: RAT LIVER S-9, AROCLOR 1254, Method: SPOT TEST) “inactive; negative”; under setting [8], “inactive; negative. reevaluation of results: inconclusive”. In addition, where the note is “Test System: MOUSE LYMPHOMA, Strain/Indicator: L5178Y (TK+/TK-), Metabolic Activation: RAT, LIVER, S-9, Method: SUSPENSION/PLATE”, the mutagenic call was “inactive; negative”.

On to `COc1ccc(Nc2c3ccccc3nc3ccccc23)cc1`, for which the mutagenic call under setting [7] is “active; positive”.

Regarding `O=C(O)/C=C/c1ccc(Cl)cc1`, the mutagenic call was “inactive; negative” under setting [2] and “inactive; negative” under setting [6].

On to `O.O=P([O-])([O-])[O-].[Fe+3]`, for which the mutagenic call reads like this: (Test System: MOUSE LYMPHOMA, Strain/Indicator: L5178Y (TK+/TK-), Metabolic Activation: NONE, Method: SUSPENSION/PLATE) “inactive; negative. reevaluation of results: negative”; under setting [8], “active; positive”; (Test System: Mouse lymphoma, Strain/Indicator: L5178Y (tk+/tk-), Metabolic Activation: Rat, Liver, S-9, Aroclor 1254, Method: Suspension/plate) “active; equivocal (previous evaluation positive)”.

With `Nc1nc(-c2cccnc2)cs1`, under “Test System: AMES SALMONELLA TYPHIMURIUM, Strain/Indicator: TA1538, Metabolic Activation: RAT, LIVER, S-9, AROCLOR 1254, Method: STANDARD PLATE”, the mutagenic call was “inactive; negative”.
